Where two headings read alike, the source gives them in different places.
Key:
[1] = tested on: Musca domestica, resistant; experiment: Aerosol Test (knock-down effect on resistant flies, 30 m^3 room); format: in vivo
Excerpt: In each experiment, 3 wire cages each containing 20 resistant male Musca domestica are suspended in rooms of volume 30 m^3. The room is then sprayed using spray cans containing active compounds I, II, III and IV or active compound mixtures I+IV; II+IV; V+VI; V+VI+I and V+VI+II according to formulation Examples 1-9.
The amount of spray applied per spray can is 12.4 g. After spraying, the rooms are sealed and the action of the spray mist on the flies observed continuously through windows. The number of minutes after which 50 and 95% of the animals had fallen onto their backs (knock-down effect) is recorded. After a tesst duration of 1 hour, the percentage of knocked-downanimals is subsequently determined. The table below contains the values determined.

[2] = tested on: insects; experiment: insecticidal / biological action (general statements); format: in vivo
[3] = tested on: rats; conditions: cited from earlier work
[4] = tested on: flies; conditions: versus mixture of equal parts of the 2,3,5,6-tetrafluorobenzyl and 3,5,6-trifluorobenzyl ester; cited from earlier work
[5] = tested on: Aedes aegypti; experiment: Vapor test (knock-down action on mosquitoes, electroevaporator ovens); format: in vivo; conditions: compound II 10 mg
Protocol: Small cellulose tablets containing active compound according to formulation examples Nos. 9 and 10 are placed on the hotplate of small electroevaporator ovens, producing temperatures of 130° and 160° C. The instruments ae connected to the mains via a socket and heated up in living rooms of equal size and equally equipped.
During the experiment, one window in the rooms remained open to the outside in the tilted position. Immediately after switching on the ovens, 2 wire baskets each containing 20 mosquitoes of the Aedes aegypti species, 3-4 days old, were hung in each room. The knock-down action on the mosquitoes was checked half or one hour later. After the oven had burnt for a longer period, fresh mosquitoes were again introduced in the same way into the rooms at certain times, and the activity was again tested after half or one hour. The temperature of the heating oven, the amounts of reactive compounds, the heating duration, the test time and the knockdown effect can be seen from the table below.
(%Knock-down: percentage of mosquitoes which have fallen onto their backs).
In the present test, active compounds I (according to the invention) and II ((-)1R-trans-isomer of fenfluthrin) were employed.

[6] = oral toxicity to mammals (LD50, rats); format: in vivo; conditions: rat, in vivo; male rats; oral
[7] = tested on: rats; experiment: oral toxicity to mammals (LD50, rats); format: in vivo
[8] = tested on: insects; conditions: prior art, ester alone; cited from earlier work
[9] = compound I 10 mg, oven 130 °C, animals introduced after 0 h heating, residence 1 h
[10] = compound I 10 mg, oven 130 °C, animals introduced after 8 h heating, residence 1 h
[11] = compound I 10 mg, oven 130 °C, animals introduced after 26 h heating, residence 1 h
[12] = compound I 10 mg, oven 130 °C, animals introduced after 50 h heating, residence 1 h
[13] = compound I 10 mg, oven 160 °C, animals introduced after 0 h heating, residence 1 h
[14] = compound I 10 mg, oven 160 °C, animals introduced after 8 h heating, residence 1 h
[15] = compound I 10 mg, oven 160 °C, animals introduced after 26 h heating, residence 1 h
[16] = compound I 20 mg, oven 130 °C, animals introduced after 0 h heating, residence 1 h
[17] = compound I 20 mg, oven 130 °C, animals introduced after 8 h heating, residence 1 h
[18] = compound I 20 mg, oven 130 °C, animals introduced after 26 h heating, residence 1 h
[19] = compound I 20 mg, oven 130 °C, animals introduced after 50 h heating, residence 1 h
[20] = compound I 20 mg, oven 160 °C, animals introduced after 0 h heating, residence 1 h
[21] = compound I 20 mg, oven 160 °C, animals introduced after 8 h heating, residence 1 h
[22] = compound I 20 mg, oven 160 °C, animals introduced after 28 h heating, residence 1 h
[23] = compound I 30 mg, oven 130 °C, animals introduced after 0 h heating, residence 0.5 h
[24] = compound I 30 mg, oven 130 °C, animals introduced after 8 h heating, residence 0.5 h
[25] = compound I 30 mg, oven 130 °C, animals introduced after 26 h heating, residence 0.5 h
[26] = compound I 30 mg, oven 130 °C, animals introduced after 50 h heating, residence 0.5 h
[27] = compound I 30 mg, oven 160 °C, animals introduced after 0 h heating, residence 0.5 h
[28] = compound I 30 mg, oven 160 °C, animals introduced after 8 h heating, residence 0.5 h
[29] = compound I 30 mg, oven 160 °C, animals introduced after 28 h heating, residence 0.5 h
[30] = compound I 30 mg, oven 160 °C, animals introduced after 32 h heating, residence 0.5 h

Row | SMILES | 50% knock-down after minutes ([1]; 5 mg/30 m^3) [min] | 95% knock-down after minutes ([1]; 5 mg/30 m^3) [min] | % knock-down after 1 hour ([1]; 5 mg/30 m^3, 1 hour) [%] | % knock-down [5, 9] [%] | % knock-down [5, 10] [%] | % knock-down [5, 11] [%] | % knock-down [5, 12] [%] | % knock-down [5, 13] [%] | % knock-down [5, 14] [%] | % knock-down [5, 15] [%] | % knock-down [5, 16] [%] | % knock-down [5, 17] [%] | % knock-down [5, 18] [%] | % knock-down [5, 19] [%] | % knock-down [5, 20] [%] | % knock-down [5, 21] [%] | % knock-down [5, 22] [%] | % knock-down [5, 23] [%] | % knock-down [5, 24] [%] | % knock-down [5, 25] [%] | other results
1 | COP(=O)(OC)OC=C(Cl)Cl [Active compound IV, dichlorvos] | – | – | – | – | – | – | – | – | – | – | – | – | – | – | – | – | – | – | – | – | % knock-down after 1 hour ([1]; 124 mg/30 m^3, 1 hour): 22%
2 | CC1(C)C(C=C(Cl)Cl)C1C(=O)OCc1c(F)c(F)cc(F)c1F (racemic) [Active compound III, tetrafluorobenzyl cis/trans-2,2-dimethyl-3-(2,2-dichlorovinyl)-cyclopropanecarboxylate] | 38 | 52 | 97 | – | – | – | – | – | – | – | – | – | – | – | – | – | – | – | – | – | biological action ([2]; compared with tetrafluorobenzyl (+)1R-trans ester according to the invention): lower biological action; oral LD50 ([3]; male rats): 10 to 25 mg/kg
3 | CC1(C)C(C=C(Cl)Cl)C1C(=O)OCc1c(F)c(F)c(F)c(F)c1F (stereo not shown) [pentafluorobenzyl ester] | – | – | – | – | – | – | – | – | – | – | – | – | – | – | – | – | – | – | – | – | amount that killed flies in the same time [4]: only a fifteenth of it killed flies in the same time
4 | CC1(C)[C@H](C=C(Cl)Cl)[C@H]1C(=O)OCc1c(F)c(F)cc(F)c1F [Active compound I, 2,3,5,6-Tetrafluoro-benzyl (+)1R-trans-2,2-dimethyl-3-(2,2-dichlorovinyl)-cyclopropanecarboxylate] | 22 | 47 | 96 | 100 | 100 | 100 | 85 | 100 | 100 | 55 | 100 | 100 | 100 | 100 | 100 | 100 | 100 | 97 | 100 | 100 | 50% knock-down after minutes ([1]; 7.5 mg/30 m^3): 18 min; 95% knock-down after minutes ([1]; 7.5 mg/30 m^3): 33 min; % knock-down after 1 hour ([1]; 7.5 mg/30 m^3, 1 hour): 99%; % knock-down [5, 26]: 92%; % knock-down [5, 27]: 100%; % knock-down [5, 28]: 100%; % knock-down [5, 29]: 100%; % knock-down [5, 30]: 100%; LD50 [6]: > 5000 mg/kg; therapeutic index ([7]; gap between effective dose for the pest and toxicity to mammals): surprisingly favorable therapeutic index; toxicity to mammals lower than that of pentafluorobenzyl (-)1R-trans ester ([7]; ratio versus pentafluorobenzyl (-)1R-trans-2,2-dimethyl-3-(2,2-dichlorovinyl)-cyclopropanecarboxylate): 50 times; toxicity to mammals lower than that of tetrafluorobenzyl cis/trans ester ([7]; ratio versus tetrafluorobenzyl cis/trans-2,2-dimethyl-3-(2,2-dichlorovinyl)-cyclopropanecarboxylate): more than 250 times; insecticidal action ([2]; compared to pentafluorobenzyl (-)1R-trans ester, at the same or an only slightly higher dosage): comparable insecticidal action
5 | CC1(C)C(C=C(Cl)Cl)C1C(=O)OCc1c(F)c(F)cc(F)c1F (stereo not shown) [tetrafluorobenzyl ester] | – | – | – | – | – | – | – | – | – | – | – | – | – | – | – | – | – | – | – | – | insecticidal action [8]: good insecticidal action
6 | CC1(C)[C@H](C=C(Cl)Cl)[C@H]1C(=O)OCc1c(F)c(F)c(F)c(F)c1F [Active compound II, pentafluorobenzyl (-)1R-trans-2,2-dimethyl-3-(2,2-dichlorovinyl)-cyclopropanecarboxylate] | 19 | 37 | 99 | 100 | 100 | 100 | 97 | 100 | 100 | 40 | 100 | 100 | 100 | 95 | 100 | 100 | 92 | 65 | 100 | 97 | % knock-down [5, 26]: 75%; % knock-down [5, 27]: 45%; % knock-down [5, 28]: 100%; % knock-down [5, 29]: 92%; % knock-down [5, 30]: 47%; oral LD50 ([3]; rats): 90 to 105 mg/kg

Reference: patent US4889872A, “2,3,5,6-Tetrafluorobenzyl (+) 1r-trans-2,2-dimethyl-3-(2,2-dichlorovinyl)-cyclopropanecarboxylate” (priority 1987, dated 1989)
